The test system of one data set is TnI. In words: Plasma troponin I (sandwich ELISA), dose escalation study. In kind it is in vivo, dog. Here is the method:
Eight heart failure dogs described in Example 1 were used. Seven of 8 dogs underwent two studies, one with active drug GP-531 tartrate and one with vehicle (placebo) and 1 of 8 dogs underwent only one active drug GP-531 study. The order of active drug and placebo was randomized and performed about one week apart. In 6 of 8 dogs, after baseline hemodynamic, and ventriculographic measurements, vehicle was administered as a continuous intravenous infusion for one hour. At the end of one hour, the active drug GP-531 tartrate was administered in 3 escalating dose of continuous intravenous infusion with each dose maintained for one hour. At the end of the last drug dose, infusion was stopped and a washout period of one hour was instituted. The same infusion rates and times between doses were used when vehicle studies were performed. At the end of each hour, hemodynamic and angiographic measurements were made. Venous blood samples were obtained at baseline and at one hour after each dose. Blood samples (at least 10 mL) were centrifuged at 3000 rpm for 10 minutes and plasma withdrawn and placed in cryostorage tubes and stored upright at −20° C. for future use. In 2 of 8 dogs, active drug was administered as bolus followed by a constant infusion for 3 hours as noted below.
(§1) Plasma biomarkers were measured in Groups I and II. Troponin I (TnI) was determined in plasma based on the principle of the double antibody sandwich enzyme-linked immunosorbent assay (ELISA) (Hirano, T., et al., Immunol Today 1990, 11:443-449) and n-terminal brain natriuretic peptide (NT-pro-BNP) based on competitive ELISA (Bonow, R. O. Circulation 1996, 93:1946-1950). Both biomarkers were assayed using commercially available assay kits. Kits for NT proBNP and TnI were purchased from ALPCO Diagnostics, Salem, N.H. Using standard curves and software, the concentration of each biomarker was expressed as ng/ml for TnI and fmol/ml for NT-proBNP.
(In general: ELISA stands for enzyme-linked immunosorbent assay.)

The target in the next data set is T1, A1 receptors (Homo sapiens, UniProt P30542).
T1 sequence (P30542 1-326): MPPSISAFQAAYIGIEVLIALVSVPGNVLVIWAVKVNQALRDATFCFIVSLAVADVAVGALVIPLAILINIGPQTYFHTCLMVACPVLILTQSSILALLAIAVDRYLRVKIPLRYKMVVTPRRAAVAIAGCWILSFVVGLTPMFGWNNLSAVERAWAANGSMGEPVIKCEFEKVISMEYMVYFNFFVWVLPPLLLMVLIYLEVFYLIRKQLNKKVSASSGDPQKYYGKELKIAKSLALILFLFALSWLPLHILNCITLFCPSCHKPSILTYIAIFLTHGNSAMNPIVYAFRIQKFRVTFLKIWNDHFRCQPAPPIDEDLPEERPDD
In words: Ligand status at adenosine A1 receptor. It counts as binding.

Another data set deals with T2, A3 receptors (Homo sapiens, UniProt P0DMS8).
T2 sequence (P0DMS8 1-318): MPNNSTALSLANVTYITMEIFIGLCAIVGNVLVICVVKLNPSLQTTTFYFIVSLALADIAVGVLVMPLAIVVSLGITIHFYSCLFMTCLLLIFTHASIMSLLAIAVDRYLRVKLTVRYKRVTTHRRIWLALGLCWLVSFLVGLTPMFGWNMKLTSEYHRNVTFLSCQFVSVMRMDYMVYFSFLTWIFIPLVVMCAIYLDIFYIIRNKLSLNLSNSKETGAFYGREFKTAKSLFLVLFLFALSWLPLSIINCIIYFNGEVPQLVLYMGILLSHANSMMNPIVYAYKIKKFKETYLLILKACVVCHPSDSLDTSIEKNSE
Put plainly: Ligand status at adenosine A3 receptor. It counts as binding.

A further data set concerns A2 receptors. In words: Ligand status at adenosine A2 receptor. It counts as binding.
Another data set deals with Troponin-I. Put plainly: Plasma troponin-I, 6 hours infusion study. It counts as in vivo, dog. Conditions: HF dogs n=6; for Plasma TnI: iv 10 μg/kg/min constant infusion. Here is the method:
Six heart failure dogs described in Example 1 were used. Studies using active drug and placebo were performed in each dog in random order a minimum of one week apart. After baseline hemodynamic, angiographic and echocardiographic measurements, GP-531 tartrate or placebo was administered as a continuous constant intravenous infusion for 6 hours. The dose of GP-531 tartrate was 10 μg/kg/min. Complete hemodynamic, angiographic and echocardiographic measurements were made during baseline, and at 1, 2, 3, 4, 5 and 6 hours after initiating drug infusion. In addition, myocardial oxygen consumption (MVO2) was measured at baseline and 4 and 6 hours after initiating drug or saline infusion. LV pressure-volume relationships (P-V Loops) were also measured at baseline and at 6 hours after initiating drug or saline infusion to assess load independent contractility and relaxation. Venous blood samples were obtained at baseline and hourly thereafter. Blood samples (at least […]) were centrifuged at 3000 rpm for 10 minutes and plasma withdrawn and placed in cryostorage tubes and stored upright at −20° C. until needed. Venous blood samples were used to evaluate plasma levels of troponin-I and plasma levels of n-terminal pro-brain natriuretic peptide (NT-proBNP).
as §1, with “all dogs at all study time points.” for “Groups I and II.”, “al,” for “al.,”, “NT-pro-BNP” for “n-terminal brain natriuretic peptide (NT-pro-BNP)”, “NT-proBNP” for “NT proBNP”

The nature of data set [1]: Octanol:water partition coefficient. It counts as physicochemical. The settings on record: read-out: Octanol: water partition coefficient (log P). An excerpt: Administering a better absorbed more lipophilic prodrug, which is subsequently hydrolysed to GP531, achieves an increase in the systemic availability of GP531.
For data set [2] the following is noted: previous studies; cited from earlier work.

Where a name gives a salt, the structure may show the parent alone.

Take `NC(=O)c1ncn(C2OC(CNCc3ccccc3)C(O)C2O)c1N` (centres unmarked) [GP-531 tartrate]: the “Effect on plasma TnI” value is on record as “decreased significantly” with TnI (Group I HF dogs, all doses (30, 100, 300 μg/kg/min), vs baseline) and “tended to decrease at the highest dose” with TnI (Group II HF dogs, 30 μg/kg/min, not statistically significant).

For `NC(=O)c1ncn(C2OC(CNCc3ccccc3)C(O)C2O)c1N` [GP-531, 5-amino-1-β-D-(5-benzylamino-5-deoxy-1-β-D-ribofuranosyl)imidazole-4 carboxamide], the “Ligand for A1 receptors” value on A1 receptors is reported as “has not been shown to be a ligand”. Besides, the “Plasma TnI” value in the data set on TnI (Group I HF dogs n=3, 1 h washout after 30/100/300 μg/kg/min) is 0.36 ± 0.03 pg/mL; with TnI (Group I HF dogs n=3, iv 30 μg/kg/min, 1 h), 0.17 ± 0.03 pg/mL; in the data set on TnI (Group I HF dogs n=3, iv 100 μg/kg/min, 1 h) it was 0.13 ± 0.02 pg/mL; with TnI (Group I HF dogs n=3, iv 300 μg/kg/min, 1 h), 0.15 ± 0.05 pg/mL; in the data set with TnI (Group II HF dogs n=3, 1 h washout after 3/10/30 μg/kg/min), 0.31 ± 0.05 pg/mL; in the data set on TnI (Group II HF dogs n=3, iv 3 μg/kg/min, 1 h), 0.51 ± 0.05 pg/mL. Besides, the “Plasma TnI” value in the data set on TnI (Group II HF dogs n=3, iv 10 μg/kg/min, 1 h) worked out at 0.50 ± 0.15 pg/mL; with TnI (Group II HF dogs n=3, iv 30 μg/kg/min, 1 h), 0.19 ± 0.05 pg/mL; in the data set on Troponin-I (1 h) it was 0.57 ± 0.02 pg/mL; in the data set on Troponin-I (2 h), 0.58 ± 0.02 pg/mL; in the data set with Troponin-I (3 h), 0.38 ± 0.03 pg/mL; with Troponin-I (4 h), 0.43 ± 0.03 pg/mL. Further, the results for the “Plasma TnI” value in the data set with Troponin-I (5 h) and with Troponin-I (6 h) were 0.41 ± 0.03 pg/mL and 0.42 ± 0.06 pg/mL, respectively. Also, the “Ligand for A3 receptors” value on A3 receptors is on record as “has not been shown to be a ligand”. Also, the “Ligand for A2 receptors” value in the data set on A2 receptors is reported as “has not been shown to be a ligand”. Moreover, the “Effect on plasma troponin-I” value with Troponin-I (iv 10 μg/kg/min for 6 h) was “significantly reduced”. Moreover, the logP in data set [1] was -0.91. Besides, in data set [2], the Metabolism result is reported as “not metabolized”. Besides, in data set [2], the Route of clearance entry was “cleared almost entirely intact in urine”.

(Values after patent publication US9492468B2, “Methods and compositions for treatment of acute heart failure” (PERICOR THERAPEUTICS, INC., priority 2008, dated 2016).)
